“Also recorded” adds a separate entry of the source. Like-named read-outs stand apart in the source and are kept apart here.
Key:
[1] = molecular target: human cannabinoid CB1 receptor (Homo sapiens, UniProt P21554); experiment: biochemical; type: binding; details: for CB1/CB2 selectivity ratio CB1 versus CB2: from Ki values at hCB1 and hCB2
[2] = molecular target: human cannabinoid CB2 receptor (Homo sapiens, UniProt P34972); experiment: Competitive radioligand binding, displacement of [3H]-CP55,940 from hCB2
Chain of human cannabinoid CB2 receptor (P34972 whole entry): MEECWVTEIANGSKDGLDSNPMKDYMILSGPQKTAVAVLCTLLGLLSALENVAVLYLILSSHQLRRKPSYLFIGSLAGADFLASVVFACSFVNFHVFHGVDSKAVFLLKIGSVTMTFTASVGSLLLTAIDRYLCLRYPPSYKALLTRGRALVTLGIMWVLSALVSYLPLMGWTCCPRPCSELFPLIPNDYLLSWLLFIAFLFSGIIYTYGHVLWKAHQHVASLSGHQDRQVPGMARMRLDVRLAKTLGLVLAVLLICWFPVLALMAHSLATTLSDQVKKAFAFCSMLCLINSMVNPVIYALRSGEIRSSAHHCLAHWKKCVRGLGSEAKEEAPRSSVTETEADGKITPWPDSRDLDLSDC

mouse vas deferens = experiment: Isolated tissue assay: electrically evoked contractions of mouse vas deferens; details: 10^−7–1.8 × 10^−5 M, concentration-response curves
mouse cannabinoid tetrad = experiment: Mouse cannabinoid tetrad; details: mice, i.p.; WIN 2.5 and 5 mg/kg, 13a 5 and 10 mg/kg

Chain of human cannabinoid CB1 receptor (P21554 whole entry): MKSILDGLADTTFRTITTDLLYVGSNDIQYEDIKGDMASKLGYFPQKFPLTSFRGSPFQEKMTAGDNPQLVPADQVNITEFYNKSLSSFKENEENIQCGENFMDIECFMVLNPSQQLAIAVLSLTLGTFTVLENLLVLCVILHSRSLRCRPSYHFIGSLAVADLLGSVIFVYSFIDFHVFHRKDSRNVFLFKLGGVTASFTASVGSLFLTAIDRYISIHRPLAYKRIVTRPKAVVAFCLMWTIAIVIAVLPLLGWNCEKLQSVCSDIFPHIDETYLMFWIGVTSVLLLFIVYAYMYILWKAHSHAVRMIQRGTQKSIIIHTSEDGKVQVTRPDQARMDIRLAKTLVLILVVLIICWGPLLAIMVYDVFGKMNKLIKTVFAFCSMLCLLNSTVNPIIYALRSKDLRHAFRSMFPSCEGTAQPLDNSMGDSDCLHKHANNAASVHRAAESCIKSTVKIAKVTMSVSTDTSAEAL

| Structure (SMILES) | Binding to CB1 receptor (in words) [1] | CB1/CB2 selectivity ratio CB1 versus CB2 [1] | Binding to CB2 receptor (in words) [2] | Ki [1] | Ki [2] | other results |
| --- | --- | --- | --- | --- | --- | --- |
| CCCCCc1cc(O)c2c(c1)OC(C)(C)c1cn[nH]c1-2 [Compound 7, 1,4-Dihydro-4,4-dimethyl-7-pentylchromen[4,3-c]pyrazol-9-ol] | failed to bind to either CB1 or CB2 receptors | 0.5 | failed to bind to either CB1 or CB2 receptors | – | – | Ki ([1]; read-out: hCB1 Ki, [3H]-CP55940 radioligand, membranes of transfected HEK293 EBNA cells, mean ± SEM of at least three experiments): 4.1 ± 0.8 µM; Ki ([2]; read-out: hCB2 Ki, [3H]-CP55940 radioligand, membranes of transfected HEK293 EBNA cells, mean ± SEM of at least three experiments): 2.01 ± 0.5 µM |
| CCCCCc1cc(O)c2c(c1)OC(C)(C)c1cnn(C)c1-2 [Compound 8a, 1,4-Dihydro-1,4,4-trimethyl-7-pentylchromeno[4,3-c]pyrazol-9-ol] | failed to bind to either CB1 or CB2 receptors | 0.7 | failed to bind to either CB1 or CB2 receptors | 4.7 ± 1.2 µM | 3.46 ± 1 µM | – |
| CCCCCc1cc(O)c2c(c1)OC(C)(C)c1cn(C)nc1-2 [Compound 8b, 2,4-dihydro-2,4,4-trimethyl-7-pentylchromeno[4,3-c]pyrazol-9-ol] | failed to bind to either CB1 or CB2 receptors | – | failed to bind to either CB1 or CB2 receptors | 22.1 ± 1.41 µM | > 40 µM | – |
| CCCCCc1cc(O)c2c(c1)OC(C)(C)c1cnn(CC)c1-2 [Compound 9a, 1-Ethyl-1,4-dihydro-4,4-dimethyl-7-pentylchromeno[4,3-c]pyrazol-9-ol] | failed to bind to either CB1 or CB2 receptors | – | failed to bind to either CB1 or CB2 receptors | 9.61 µM | > 40 µM | – |
| CCCCCc1cc(O)c2c(c1)OC(C)(C)c1cn(CC)nc1-2 [Compound 9b, 2-Ethyl-2,4-dihydro-4,4-dimethyl-7-pentylchromeno[4,3-c]pyrazol-9-ol] | failed to bind to either CB1 or CB2 receptors | – | failed to bind to either CB1 or CB2 receptors | > 40 µM | 4.45 ± 1.01 µM | – |
| CCCCCc1cc(O)c2c(c1)OC(C)(C)c1cnn(-c3ccc(Cl)c(Cl)c3)c1-2 [Compound 10a, 1-(3,4-Dichlorophenyl)-1,4-dihydro-4,4-dimethyl-7-pentylchromeno[4,3-c]pyrazol-9-ol] | binds weakly to the CB1 cannabinoid receptor | – | – | 0.607 ± 0.151 µM | > 40 µM | – |
| CCCCCCC(C)(C)c1cc(O)c2c(c1)OC(C)(C)c1cn[nH]c1-2 [Compound 11, 1,4-Dihydro-4,4-dimethyl-7-(1,1-dimethylheptyl)chromeno[4,3-c]pyrazol-9-ol] | – | >1000 | – | – | > 40 µM | – |
| CCCCCCC(C)(C)c1cc(O)c2c(c1)OC(C)(C)c1cn(C)nc1-2 [Compound 12b, 7-(1,1-Dimethylheptyl)-2,4-dihydro-2,4,4-trimethylchromeno[4,3-c]pyrazol-9-ol] | – | >1000 | – | – | > 40 µM | – |
| CCCCCCC(C)(C)c1cc(O)c2c(c1)OC(C)(C)c1cnn(CC)c1-2 [Compound 13a, 7-(1,1-Dimethylheptyl)-1-ethyl-1,4-dihydro-4,4-dimethylchromeno[4,3-c]pyrazol-9-ol] | – | >1000 | – | – | > 40 µM | Effect on electrically evoked contractile response of mouse vas deferens (mouse vas deferens): highest effectiveness; also recorded: most effective cannabinoid agonist; Antinociception in the hot-plate test (cannabinoid tetrad) (mouse cannabinoid tetrad): did not modify any of the signs of cannabinoid tetrad; Catalepsy on a ring (cannabinoid tetrad) (mouse cannabinoid tetrad): did not modify any of the signs of cannabinoid tetrad; Locomotor activity on the rota-rod test (cannabinoid tetrad) (mouse cannabinoid tetrad): did not modify any of the signs of cannabinoid tetrad; Rectal temperature / hypothermia (cannabinoid tetrad) (mouse cannabinoid tetrad): did not modify any of the signs of cannabinoid tetrad |
| CCCCCCC(C)(C)c1cc(O)c2c(c1)OC(C)(C)c1cn(CC)nc1-2 [Compound 13b, 7-(1,1-dimethylheptyl)-2-ethyl-2,4-dihydro-4,4-dimethylchromeno[4,3-c]pyrazol-9-ol] | – | >1000 | – | – | > 40 µM | – |
| CCCCCCC(C)(C)c1cc(O)c2c(c1)OC(C)(C)c1cnn(-c3ccc(Cl)c(Cl)c3)c1-2 [Compound 14a, 1-(3,4-Dichlorophenyl)-7-(1,1-dimethylheptyl)-1,4-dihydro-4,4-dimethylchromeno[4,3-c]pyrazol-9-ol] | reduced affinity for both receptors; also recorded: loss of affinity for CB1 | 0.5 | reduced affinity for both receptors; also recorded: moderate affinity for CB2 receptor | – | – | – |
| CCCCCCC(C)(C)c1cc(O)c2c(c1)OC(C)(C)c1cnn(-c3ccc(Cl)cc3Cl)c1-2 [Compound 15a, 1-(2,4-Dichlorophenyl)-7-(1,1-dimethylheptyl)-1,4-dihydro-4,4-dimethylchromeno[4,3-c]pyrazol-9-ol] | – | >1000 | – | – | > 40 µM | – |
| Cc1c(C(=O)c2cccc3ccccc23)c2cccc3c2n1[C@H](CN1CCOCC1)CO3 [WIN55,212-2, reference compound] | – | – | – | – | – | Antinociception in the hot-plate test (cannabinoid tetrad) (mouse cannabinoid tetrad): induced antinociceptive effect in the hot-plate test; Catalepsy on a ring (cannabinoid tetrad) (mouse cannabinoid tetrad): catalepsy; Locomotor activity on the rota-rod test (cannabinoid tetrad) (mouse cannabinoid tetrad): reduction of the locomotor activity; Rectal temperature / hypothermia (cannabinoid tetrad) (mouse cannabinoid tetrad): hypothermia |
